Assay results as given in US12478677B2, “Tunable luminescent organic salts for enhanced imaging and photodynamic therapy” (BOARD OF TRUSTEES OF MICHIGAN STATE UNIVERSITY, priority 2017, dated 2025).

How the values were obtained:
[1] = system: A549 cells; assay: Luminescent imaging of cells; format: cell-based, human
Experimental: Images are obtained using a Leica DMi8 microscope with a PE4000 LED light source, DFC9000GT camera, and LAS X imaging system. A549 cells are seeded in 3 cm tissue culture plates at a density of 50,000 cells per well in DMEM media containing luminescent organic salts at indicated concentrations. The cells incubate for 2 days at 37° C. with 5% CO2 until the day of imaging. For live cell imaging, the media is aspirated and replaced with fresh dye-free media to reduce background noise. For fixed cell imaging, cells are grown on 0.5 mm coverslips within 3 cm plates. The media is aspirated and the cells are washed with phosphate buffered saline (PBS) before being submerged in cold methanol and incubated at −20° C. for 15 minutes. The cells are then washed with PBS 5 times, and the coverslips are then mounted to slides using DAPI with Fluoromount-G.

[2] = Salt integrity and aggregation in cell media (mass spectrometry, electron microscopy, UV-Vis); format: physicochemical; conditions: high resolution mass spectrometry, electron microscopy, UV-Vis spectroscopy
Excerpt: FIGS. 7A-7C. […] Organic salts were first dissolved in DMSO and then diluted in water, forming nanoparticles. […] Combinations of H- and J-aggregation of organic salts can be seen by blue-shifted peaks (lower wavelength) and red-shifted peaks (higher wavelength), respectively. The nanoparticles with small hard anions redissolve in cell media likely due to sterics. […] This is achieved by cation-anion pairs of luminescent organic salts that can be modulated to be either non-toxic for enhanced imaging, or phototoxic for improved PDT. […] IR polymethine cyanine dyes, which have been used as effective theranostics are described. […] This is thought to occur through a mechanism mitigated by tumor vascularization, increased retention in cancer cells, and mitochondrial depolarization. Once in the cell, they accumulate in the mitochondria and lysosomes, where irradiation induces generation of cytotoxic oxygen species. A strategy is described for preventing or inhibiting salt dissociation in cells: aggregates are formed via introduction of the salt into an aqueous media by a solvent vehicle, forming particles with diameters of about 5 nm in size with no precipitation observed. […] This is confirmed by high resolution mass spectrometry, electron microscopy, and UV-Vis spectroscopy. […] Normalized absorption data are sown in FIGS. 7A, 7B, and 7C. This is likely due to steric effects, where if the counterion radius is too small it is not able to protect the nanoparticle stability. This can be characterized by the volume-averaged effective spherical radius of the counterions, where the cutoff is at about 0.275 nm.

CCN1C(=CC=C2CCCC(C=CC3=[N+](CC)c4ccc5ccccc5c4C3(C)C)=C2Cl)C(C)(C)c2c1ccc1ccccc21.Fc1c(F)c(F)c([B-](c2c(F)c(F)c(F)c(F)c2F)(c2c(F)c(F)c(F)c(F)c2F)c2c(F)c(F)c(F)c(F)c2F)c(F)c1F [CyTPFB]
Cellular localization versus concentration in media, in words [1]: localize inside cells proportionally to the initial introduced concentration in the cellular media
Integrity of salt pairing in cellular environments [2]: maintained in cellular environments
